Usually IC50 stands for the concentration that gives 50% inhibition.

The target of this experiment is T1, AtHPPD (Arabidopsis thaliana, UniProt P93836).
T1 construct: gene HPD; recombinant enzyme supplied by Guangfu Yang research team; Fe(II) enzyme; PDB 1TFZ used for docking only
T1 sequence (P93836 1-445): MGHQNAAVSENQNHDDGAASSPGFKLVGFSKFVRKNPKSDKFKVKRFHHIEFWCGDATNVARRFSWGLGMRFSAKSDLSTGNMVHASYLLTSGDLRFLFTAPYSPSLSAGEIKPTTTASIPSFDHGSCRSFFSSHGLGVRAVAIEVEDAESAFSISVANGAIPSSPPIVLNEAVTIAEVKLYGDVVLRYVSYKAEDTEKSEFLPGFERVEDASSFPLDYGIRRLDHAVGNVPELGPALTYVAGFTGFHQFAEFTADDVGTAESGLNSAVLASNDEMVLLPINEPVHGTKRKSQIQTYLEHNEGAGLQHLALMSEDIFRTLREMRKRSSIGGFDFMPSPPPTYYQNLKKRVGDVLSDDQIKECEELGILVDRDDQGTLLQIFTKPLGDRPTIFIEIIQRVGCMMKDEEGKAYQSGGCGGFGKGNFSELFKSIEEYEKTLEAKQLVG
Put plainly: HGD-coupled assay, maleylacetoacetate at […] nm. Type of experiment: biochemical.

Read-outs that look alike come from different tables or passages of the source.

Turning to `CS(=O)(=O)c1ccc(C(=O)C2C(=O)CCCC2=O)c([N+](=O)[O-])c1` [Control 1, mesotrione], the IC50 was determined as 204 nM. `Cc1cc(O)c(C(=O)/C=C/c2ccccc2)c(=O)o1` [compound 3881, 3-cinnamoyl-4-hydroxy-6-methyl-2H-pyran-2-one]: the IC50 (read-out: IC50) is 2490 nM.

The record behind these values is publication PMC5807903, “Combination of Virtual Screening Protocol by in Silico toward the Discovery of Novel 4-Hydroxyphenylpyruvate Dioxygenase Inhibitors” (Frontiers in Chemistry, 2018).
